According to the NIST ThermoML archive (doi:10.1021/acs.jced.6b00542):
± gives the expanded uncertainty stated by the source.

Assay: xn = mol fraction of the nth substance listed
Settings: Liquid; for mass density / viscosity: 102 kPa; for mass density: Vibrating tube method; for speed of sound: 100 kPa, Frequency=3 MHz, Sing-around technique in a fixed-path interferometer; for viscosity: Concentric cylinders viscometry

CCCCc1ccccc1 [butylbenzene] + CCCCCCCCCCCCCCCC
Settings | mass density [kg/m3] | speed of sound [m/s] | viscosity [mPa·s]
323.15 K, x1 = 0.1586 | 759.88 ± 0.16 | – | –
323.15 K, x1 = 0.2971 | 767.24 ± 0.15 | – | –
323.15 K, x1 = 0.4067 | 773.97 ± 0.15 | – | –
323.15 K, x1 = 0.5293 | 782.69 ± 0.14 | – | –
323.15 K, x1 = 0.6278 | 790.88 ± 0.13 | – | –
323.15 K, x1 = 0.7158 | 799.21 ± 0.13 | – | –
323.15 K, x1 = 0.7981 | 808.17 ± 0.13 | – | –
323.15 K, x1 = 0.8709 | 817.16 ± 0.12 | – | –
323.15 K, x1 = 0.938 | 826.58 ± 0.12 | – | –
323.15 K, x1 = 1 | 836.34 ± 0.11 | – | –
333.15 K, x1 = 0.1586 | 752.86 ± 0.16 | 1208.2 ± 1 | 1.37 ± 0.01
333.15 K, x1 = 0.2971 | 760.13 ± 0.15 | 1204.9 ± 0.9 | 1.24 ± 0.01
333.15 K, x1 = 0.4067 | 766.76 ± 0.15 | 1202.5 ± 0.9 | 1.13 ± 0.01
333.15 K, x1 = 0.5293 | 775.36 ± 0.14 | 1200.2 ± 0.9 | 1.02 ± 0.01
333.15 K, x1 = 0.6278 | 783.43 ± 0.14 | 1198.6 ± 0.9 | 0.929 ± 0.007
333.15 K, x1 = 0.7158 | 791.64 ± 0.13 | 1197.8 ± 0.9 | 0.856 ± 0.007
333.15 K, x1 = 0.7981 | 800.47 ± 0.13 | 1197.9 ± 0.9 | 0.787 ± 0.006
333.15 K, x1 = 0.8709 | 809.32 ± 0.13 | 1198.3 ± 0.8 | 0.731 ± 0.006
333.15 K, x1 = 0.938 | 818.61 ± 0.12 | 1199.6 ± 0.8 | 0.68 ± 0.006
333.15 K, x1 = 1 | 828.21 ± 0.12 | 1201.4 ± 0.8 | 0.636 ± 0.006
343.15 K, x1 = 0.1586 | 745.8 ± 0.3 | – | 1.18 ± 0.01
343.15 K, x1 = 0.2971 | 752.9 ± 0.2 | – | 1.07 ± 0.01
343.15 K, x1 = 0.4067 | 759.5 ± 0.2 | – | 0.986 ± 0.007
343.15 K, x1 = 0.5293 | 767.9 ± 0.2 | – | 0.893 ± 0.007
343.15 K, x1 = 0.6278 | 775.9 ± 0.2 | – | 0.821 ± 0.007
343.15 K, x1 = 0.7158 | 783.9 ± 0.2 | – | 0.757 ± 0.006
343.15 K, x1 = 0.7981 | 792.7 ± 0.2 | – | 0.702 ± 0.006
343.15 K, x1 = 0.8709 | 801.4 ± 0.2 | – | 0.653 ± 0.006
343.15 K, x1 = 0.938 | 810.6 ± 0.2 | – | 0.61 ± 0.006
343.15 K, x1 = 1 | 819.9 ± 0.2 | – | 0.571 ± 0.006
353.15 K, x1 = 0.1586 | 738.8 ± 0.3 | – | 1.03 ± 0.01
353.15 K, x1 = 0.2971 | 745.8 ± 0.3 | – | 0.939 ± 0.007
353.15 K, x1 = 0.4067 | 752.3 ± 0.2 | – | 0.868 ± 0.007
353.15 K, x1 = 0.5293 | 760.5 ± 0.2 | – | 0.792 ± 0.006
353.15 K, x1 = 0.6278 | 768.4 ± 0.2 | – | 0.731 ± 0.006
353.15 K, x1 = 0.7158 | 776.2 ± 0.2 | – | 0.677 ± 0.006
353.15 K, x1 = 0.7981 | 784.9 ± 0.2 | – | 0.63 ± 0.006
353.15 K, x1 = 0.8709 | 793.5 ± 0.2 | – | 0.588 ± 0.006
353.15 K, x1 = 0.938 | 802.5 ± 0.2 | – | 0.55 ± 0.006
353.15 K, x1 = 1 | 811.7 ± 0.2 | – | 0.516 ± 0.006
363.15 K, x1 = 0.1586 | 731.6 ± 0.3 | – | 0.91 ± 0.007
363.15 K, x1 = 0.2971 | 738.6 ± 0.3 | – | 0.833 ± 0.007
363.15 K, x1 = 0.4067 | 744.9 ± 0.2 | – | 0.773 ± 0.006
363.15 K, x1 = 0.5293 | 753.1 ± 0.2 | – | 0.708 ± 0.006
363.15 K, x1 = 0.6278 | 760.8 ± 0.2 | – | 0.656 ± 0.006
363.15 K, x1 = 0.7158 | 768.5 ± 0.2 | – | 0.61 ± 0.006
363.15 K, x1 = 0.7981 | 777.1 ± 0.2 | – | 0.569 ± 0.006
363.15 K, x1 = 0.8709 | 785.4 ± 0.2 | – | 0.532 ± 0.006
363.15 K, x1 = 0.938 | 794.3 ± 0.2 | – | 0.5 ± 0.005
363.15 K, x1 = 1 | 803.4 ± 0.2 | – | 0.469 ± 0.005
373.15 K, x1 = 0.1586 | 724.5 ± 0.3 | – | 0.811 ± 0.007
373.15 K, x1 = 0.2971 | 731.3 ± 0.3 | – | 0.746 ± 0.006
373.15 K, x1 = 0.4067 | 737.5 ± 0.2 | – | 0.695 ± 0.006
373.15 K, x1 = 0.5293 | 745.5 ± 0.2 | – | 0.639 ± 0.006
373.15 K, x1 = 0.6278 | 753.1 ± 0.2 | – | 0.594 ± 0.006
373.15 K, x1 = 0.7158 | 760.8 ± 0.2 | – | 0.553 ± 0.006
373.15 K, x1 = 0.7981 | 769.1 ± 0.2 | – | 0.517 ± 0.006
373.15 K, x1 = 0.8709 | 777.5 ± 0.2 | – | 0.484 ± 0.005
373.15 K, x1 = 0.938 | 786.1 ± 0.2 | – | 0.456 ± 0.005
373.15 K, x1 = 1 | 795 ± 0.2 | – | 0.43 ± 0.005
